Test results as given in patent US20090275503A1, “DIASTEREOMERIC PEPTIDES FOR MODULATING T CELL IMMUNITY” (Yeda Research and Developent Co., Ltd. at the Weizman …, priority 2005, published 2009).
Non-standard residues stand in square brackets, D forms with d. Residues, ends and D or L forms follow the SMILES beside them. No end group written: not given here.

How the values were obtained:
[1] = system: Lewis rats; experiment: Adjuvant arthritis (AA) in Lewis rats (Part B); format: in vivo, rat; conditions: for Mean maximum AA score: 100 μg amidated peptide per rat at AA induction, maximum possible score 16; for Effect on adjuvant arthritis (clinical score and ankle swelling): 100 μg amidated peptide per rat with the antigen at AA induction
Protocol: (§1) To test the effect of CP on T-cell activation in vivo, we used AA as a model system. AA was induced by injecting 50 μl of Mt suspended in IFA (0.5 mg/ml) at the base of the tail. At the time of AA induction, each rat also received 100 μg of L-CP, D-CP or 2G CP control peptide (or PBS) dissolved in 50 μl of IFA and mixed with Mt/IFA used to induce AA. The day of AA induction was designated as day 0. Disease severity was assessed by direct observation of all 4 limbs in each animal. A relative score between 0 and 4 was assigned to each limb, based on the degree of joint inflammation, redness and deformity; thus the maximum possible score for an individual animal was 16. The mean AA score (±SEM) is shown for each experimental group. Arthritis was also quantified by measuring hind limb diameter with a caliper. Measurements were taken on the day of the induction of AA and 26 days later (at the peak of AA); the results are presented as the mean±SEM of the difference between the two values for all the animals in each group. The person who scored the disease was blinded to the identity of the groups.
To test the inhibitory effects of CP on the activation of specific T cells in vivo, we used the adjuvant arthritis (AA) model. Immunization of Lewis rats with Mt in oil triggers AA, an experimental autoimmune disease driven by Mt-specific T cells cross-reactive with self-antigens. Mt176-90-specific T cells are detectable upon induction of AA; indeed the A2b T-cell clone cross-reacts with cartilage and mediates AA. Since L and D-CP inhibited the T-cell response of primed LNC and of clone A2b to PPD and […] in vitro (FIG. 9), we also investigated the effects of L- or D-CP on the in vivo activation of the T cells that drive AA. […] The mean maximum score was 12±0.3 in the control-treated rats, compared with 6±0.7 in the D-CP-treated rats and 7.3±0.7 in the L-CP-treated rats (p<0.05 for the L and D-CP groups compared to the control groups).

[2] = system: LNC from Mt-immunized rats; experiment: T-cell proliferation of LNC or A2b T cell line (Part B, amidated peptides); format: cell-based, rat; conditions: for Inhibition of T-cell proliferative responses to PPD and to Mt176-90: amidated peptides, LNC, 72 hr
[3] = system: cells; experiment: Cytotoxicity when incubated with cells (Part B); format: cell-based, rat
[4] = system: Lewis rats; experiment: Delayed type hypersensitivity (DTH) to PPD in AA rats (Part B); format: in vivo, rat; conditions: 16 days after AA induction
Protocol: (§2) Twenty μl of PPD (0.5 mg/ml in PBS) were injected intradermally into the pinna of the right ear on day 16 after AA induction; 20 μl of sterile PBS were injected in the left ear as control. The thickness of the ear was measured 48 hr later using a vernier caliper and expressed as the difference between the right and the left ear.
The activity of the T cells that mediate AA can also be detected in vivo by studying the delayed type hypersensitivity (DTH) response to PPD. We studied the DTH response to PPD 16 days after AA induction in rats treated with the three peptides.

[5] = system: BALB/c mice; experiment: Delayed type hypersensitivity to oxazalone in mice; format: in vivo, mouse; conditions: topical treatment 1 hr after oxazalone challenge; peptides 150 μg (6 mg/kg) in DMSO; measured following day
Protocol: Groups of 5 female inbred BALB/c mice (The Jackson Laboratory) were sensitized on the shaved abdominal skin with 100 μl of 2% Oxazalone dissolved in acetone/olive oil [4:1 (vol/vol)] applied topically. DTH sensitivity was elicited 5 days later by challenging the mice with 20 μl of 0.5% Oxazalone in acetone/olive oil, 10 μl administered topically to each side of the ear. A constant area of the ear was measured immediately before challenge and 24 h after challenge with a Mitutoyo engineer's micrometer. The individual measuring ear swelling was unaware of the identity of the groups of mice. The DTH reaction is presented as the increment of ear swelling after challenge expressed as the mean±SEM in units of 10-2 mm. One hour after the challenge the mice's ears were treated topically with either all-L CP or with 2D-CP, both dissolved in 40 μl DMSO. The activity of the peptide treatments was compared to treatment with DMSO alone for “untreated mice” and Dexamethasone (100 μg/ml in saline) as a positive control.
To test whether TCR trans-membrane peptides could inhibit the elicitation of existing DTH reactivity, groups of naïve BALB/c mice were sensitized to 2% oxazalone. Five days later, the mice were challenged with 0.5% oxazalone administered to the ear. An hour after the challenge, the mice were treated with Dimethylsulfoxide (DMSO), all-L CP 150 μg (6 mg/kg) in DMSO, 2D-CP 150 μg (6 mg/kg) in DMSO, or dexamethasone, applied topically. On the following day, ear thickness was measured the swelling of DMSO treated mice (0.33±0.01 mm) was compared to that of mice treated with all-L CP (0.30±0.01 mm), 2D-CP (0.27±0.01 mm) and Dexamethasone (0.15±0.02 mm). […] Thus, 2D-CP can inhibit a T-cell mediated immune reaction in subjects already sensitized to the antigen.

[6] = system: Lewis rats; experiment: Delayed type hypersensitivity to PPD in AA rats (Part A); format: in vivo, rat; conditions: 16 days after AA induction, ear thickness 48 hr after PPD
Protocol: as §2, with “right ear of each rat on day” for “right ear on day”, “the left ear (Quintana et al., 2005).” for “the left ear.”

[7] = system: Lewis rats; experiment: Adjuvant arthritis (AA) in Lewis rats (Part A); format: in vivo, rat
Protocol: as §1, with “the experimental T-cell mediated autoimmune disease adjuvant arthritis (AA) was used.” for “we used AA as a model system.”, “(10” for “(0.5”, “all-L CP, 2D-CP” for “L-CP, D-CP”, “16 (Quintana et al., 2002).” for “16.”
Next, the contribution of the secondary structure and the side-chains to the inhibitory effects of CP on T cell activation In vivo was analyzed, using the experimental autoimmune disease Adjuvant Arthritis (AA). Immunization of Lewis rats with Mt triggers AA, an autoimmune disease driven by Mt-specific T cells that cross-react with self-antigen (Holoshitz et al., 1984; Holoshitz et al., 1983). PPD and Mt176-90 are targeted by the arthritogenic T-cell response (Anderton et al., 1994); indeed immunomodulatory therapies that inhibit the progression of arthritis have been associated with a decreased T cell response to PPD and Mt176-90 and with a diminished delayed type hypersensitivity (DTH) response to PPD (van Eden et al., 1985).

[8] = system: rat TCR; experiment: Co-immunoprecipitation of fluorescence-labeled peptides with TCR molecules; format: binding; conditions: Rho-labeled peptides
Protocol: Activated A2b T cells (2×10^6) were cultured for 1 hr at 37° C. in the presence of CP or 2D-CP (25 μg/ml), or 2G-CP, and lysed for 15 min on ice in 0.1 ml lysis buffer (Adachi et al., 1996). Insoluble material was removed by centrifugation at 10.000 g for 10 min at 4° C. The lysate was then incubated overnight with Protein A-plus Agarose beads (Santa Cruz Biotechnology Inc., Santa Cruz, Calif., USA) bound to antibodies to the rat TCR or MHC class 1. The antibodies reactive against the rat TCR (clone R73) or HSP60 (clone LKI) were purified from the respective hybridomas at our lab; antibodies to rat CD28, actin and the rat MHC class 1 were purchased from Serotec (Oxford, UK). After an overnight incubation at 4° C., the beads were washed with lysis buffer, boiled for 10 minutes and the protein supernatant run in a 4-20% SDS-PAGE. The presence of co-immunoprecipitated peptide was detected by the Typhoon 9400 variable mode imager.
Next, co-immunoprecipitation experiments were performed. The affinity of the TCR/CP, the TCR/2D-CP and TCR/2G-CP interactions were compared by performing a series of co-precipitation experiments using different concentrations of Rho-labeled CP, 2D-CP and 2G-CP peptides.

[9] = system: target cells; experiment: Cytotoxic effect on the target cells (Part A); conditions: incubated with the target cells
[10] = system: LNC from Mt primed rats; experiment: T-cell proliferation of LNC from Mt-immunized rats activated with PPD or Mt176-90 (Part A); format: cell-based, rat; conditions: LNC, 72 hr, 3H-thymidine incorporation

| Molecule | Mean maximum AA score [1] | Effect on adjuvant arthritis (clinical score and ankle swelling) [1] | Inhibition of T-cell proliferative responses to PPD and to Mt176-90 [2] | Inhibition of T-cell proliferation compared with L-CP ([2]; at the lower concentrations) | Cytotoxicity [3] | Reduction in the DTH response to PPD [4] [%] | Ear swelling [5] [mm] | Reduction in the DTH response to PPD [6] [%] | Mean maximum AA score ([7]; 100 μg peptide per rat at AA induction, maximum possible score 16) | Effect on adjuvant arthritis (clinical score and paw swelling) ([7]; 100 μg peptide per rat with Mt at the time of AA induction) | Co-precipitation with the TCR ([8]; activated A2b T cells) | Affinity of TCR interaction compared with TCR/2D-CP ([8]; different concentrations) | Cytotoxic effect [9] | Inhibition of T-cell proliferation to PPD and to Mt176-90 [10] |
| --- | --- | --- | --- | --- | --- | --- | --- | --- | --- | --- | --- | --- | --- | --- |
| CC[C@@H](C)[C@@H](NC(=O)[C@@H](CCCNC(=N)N)NC(=O)[C@@H](CC(C)C)NC(=O)CN)C(=O)N[C@H](CC(C)C)C(=O)N[C@H](CC(C)C)C(=O)N[C@H](CC(C)C)C(=O)N[C@H](CCCCN)C(=O)N[C@@H](C(N)=O)C(C)C [D-CP, X-GLRILLLKV-NH2] (H-G[dL][dR][dI][dL][dL][dL][dK][dV]-NH2) | 6±0.7 | significantly milder arthritis | inhibited the T-cell proliferative responses to PPD and to Mt176-90 in a dose-dependent manner | consistently higher | showed no cytotoxicity | 48 | – | – | – | – | – | – | – | – |
| C[C@@H]1C[C@H]2[C@@H]3CCC4=CC(=O)C=C[C@]4(C)[C@@]3(F)[C@@H](O)C[C@]2(C)[C@@]1(O)C(=O)CO [Dexamethasone, reference compound] | – | – | – | – | – | – | 0.15±0.02 | – | – | – | – | – | – | – |
| GLRILLLKV [all-L CP] (GLRILLLKV-NH2; listed as Homo sapiens) [wild-type core peptide derived from murine TCRα transmembrane domain, reference compound] | – | – | – | – | – | – | 0.30±0.01 | 39 | 7.7±0.7 | significantly milder arthritis | can be co-precipitated with the TCR | higher affinity | None of the peptides (all-L CP, 2D-CP or 2G CP) had a cytotoxic effect | inhibited T-cell proliferation to PPD and to Mt176-90 in a dose-dependent manner |
| GLRILLLKV-NH2 [L-CP, X-GLRILLLKV-NH2, reference compound] | 7.3±0.7 | significantly milder arthritis | inhibited the T-cell proliferative responses to PPD and to Mt176-90 in a dose-dependent manner | – | showed no cytotoxicity | 39 | – | – | – | – | – | – | – | – |
